Assay results from US20200376003A1, “PHARMACEUTICAL COMPOSITION FOR PREVENTING OR TREATING CHOLESTEROL GALLSTONE COMPRISING URSODEOXYCHOLIC ACID (UDCA) AND OMEGA-3 FATTY ACID, AND PROCESS FOR PRODUCING THE SAME” (INDUSTRY-ACADEMIC COOPERATION FOUNDATION, YONSEI UNIVERSITY, priority 2019, published 2020).
“Also recorded” adds a separate entry of the source.

Tested on: mice with gallstones formed due to a high-cholesterol diet
Test: Treatment of cholesterol gallstones in mice with gallstones formed by a high-cholesterol (lithogenic) diet, 12 weeks of drug administration
Type: in vivo, C57BL/6J male mice
Protocol: An overall schematic diagram of the animal experiment is as illustrated in FIG. 1. This will be described below in more detail. C57BL/6J male mice were purchased from Central Lab. Animal Inc. The mice were allowed to have a 4-week compliance period under a condition of controlled light (a cycle of 12-hour light and 12-hour darkness in which darkness is from 6:30 pm to 6:30 am), temperature (22±4° C.), and humidity (50%±20%). The mice had ad libitum access to water (autoclaved distilled water) and were fed commercial feed (Scientific Animal Food & Engineering/+40RMM) containing 2.9% fat, 15.2% protein, and 60.7% carbohydrate. In addition, a lithogenic diet (DYET #102136; Dyets, Inc., Bethlehem, Pa., USA) containing cholesterol (10 g/kg) and cholic acid (5 g/kg) was given for 8 weeks, so that mice with gallstones formed due to a high-cholesterol diet were created.
The mice with gallstones formed due to a high-cholesterol diet were divided into the following groups and experiments were conducted for 12 weeks:
Each of the mice of the control group (1) was administered, using a sonde, 0.3 ml of a mixture of 0.75% Tween 80 and distilled water. The mice of the groups (2) to (4) were administered, using a sonde, a product obtained by diluting 12.5 mg/kg/day of UDCA and 51 mg/kg/day of omega-3 fatty acid in 0.75% Tween 80. […]
After 12 weeks of drug administration, animals were sacrificed and gallbladder tissue was obtained. […] After the high-cholesterol diet, body weight and liver weight were measured; and after the normal diet and therapeutic agent administration, body weight and liver weight were measured (FIG. 2). […]
The size of gall stones in the gallbladder tissue obtained in Example 1 was analyzed on the basis of FIG. 4 (FIGS. 5 and 6). […]
Changes in the weight of liver gallstones after the high-cholesterol diet (base) and after the therapeutic agent administration were analyzed (FIGS. 7 and 8).

[1] = Example 2, anatomical changes before and after 12 weeks of drug administration, normal diet

SMILES: C[C@H](CCC(=O)O)[C@H]1CC[C@H]2[C@@H]3[C@@H](O)C[C@@H]4C[C@H](O)CC[C@]4(C)[C@H]3CC[C@]12C [UDCA, 3α,7β-dihydroxy-5β-cholanoic acid]
- amount of gallstones after administration (FIG. 3) [1]: insignificantly decreased
- size of gallstones after administration (FIG. 3) [1]: slightly decreased; also recorded: insignificant changes
- size of gallstones, analysed on the classification chart of FIG. 4 (FIGS. 5 and 6) (Example 3, after high-cholesterol diet vs after therapeutic agent administration): no change in size
